# Results: PMC9218946, “Identification of a Subtype-Selective Allosteric Inhibitor of GluN1/GluN3 NMDA Receptors” (Frontiers in Pharmacology, 2022)
# Counter-ions that a name gives are not always drawn.
# Target: GluN1/GluN3 receptors
# Test: not given
# Design: method as in Zhu et al., 2020
# Settings: ref Zhu et al., 2020; cited from earlier work
row,Structure (SMILES),IC50 [µM]
1,COc1ccc(OCC(c2ccc(OC)cc2)N2Cc3ccccc3C2=O)cc1 (stereo not shown) [EU1180-438],1.8 ± 0.3

# Test system: GluN3A
# Test: not given
# Settings: ref Yao and Mayer, 2006; cited from earlier work
row,Structure (SMILES),higher affinity for GluN3A than for GluN1 [fold]
1,NCC(=O)O [glycine],650

# Target: T1, GluN1/GluN3A receptors (UniProt Q05586+Q9R1M7)
# T1 sequence (Q9R1M7 24-1135, other chains not shown): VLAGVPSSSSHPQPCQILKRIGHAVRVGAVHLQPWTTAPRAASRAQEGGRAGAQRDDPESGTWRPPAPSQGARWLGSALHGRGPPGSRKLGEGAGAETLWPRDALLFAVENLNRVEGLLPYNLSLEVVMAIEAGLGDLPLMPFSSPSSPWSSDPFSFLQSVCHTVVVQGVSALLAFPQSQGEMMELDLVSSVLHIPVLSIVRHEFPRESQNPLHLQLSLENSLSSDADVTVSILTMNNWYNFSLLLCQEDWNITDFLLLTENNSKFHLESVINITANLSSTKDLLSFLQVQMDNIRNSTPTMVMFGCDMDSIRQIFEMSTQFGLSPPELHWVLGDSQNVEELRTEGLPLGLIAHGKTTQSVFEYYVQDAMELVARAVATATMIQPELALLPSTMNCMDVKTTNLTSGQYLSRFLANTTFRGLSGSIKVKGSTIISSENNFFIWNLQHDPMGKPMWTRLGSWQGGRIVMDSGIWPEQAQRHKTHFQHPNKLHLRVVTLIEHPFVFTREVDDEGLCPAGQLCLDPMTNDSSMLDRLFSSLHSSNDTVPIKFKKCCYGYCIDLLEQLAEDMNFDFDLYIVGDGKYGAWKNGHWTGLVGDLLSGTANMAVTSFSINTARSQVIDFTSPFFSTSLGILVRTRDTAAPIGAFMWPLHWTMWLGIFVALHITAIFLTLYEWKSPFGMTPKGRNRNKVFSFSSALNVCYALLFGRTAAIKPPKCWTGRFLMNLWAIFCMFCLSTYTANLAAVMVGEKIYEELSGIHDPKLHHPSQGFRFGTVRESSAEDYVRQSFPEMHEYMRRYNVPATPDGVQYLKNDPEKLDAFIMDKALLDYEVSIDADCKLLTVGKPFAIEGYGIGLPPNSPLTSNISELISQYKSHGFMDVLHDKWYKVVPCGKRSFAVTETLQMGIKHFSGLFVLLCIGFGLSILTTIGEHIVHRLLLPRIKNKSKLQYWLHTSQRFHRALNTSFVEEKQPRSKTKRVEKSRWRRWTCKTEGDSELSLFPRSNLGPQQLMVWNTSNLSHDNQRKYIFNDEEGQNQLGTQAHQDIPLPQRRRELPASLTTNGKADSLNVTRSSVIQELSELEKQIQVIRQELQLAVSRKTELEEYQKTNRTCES
# Test: Whole-cell patch-clamp recording on GluN1/GluN3A Flp-in T-REx 293 stable cell lines
# Type: cell-based, human GluN1-1a, rat GluN3A
# Design: expressed in transfected cells
# Settings: 3 μM compound; whole-cell patch-clamp; mean ± SEM; drug application order as in FDSS/μCell Ca2+ imaging (CGP-78608, then glycine)
# Experimental: To establish GluN1/GluN3A stable cell lines, the human GluN1-1a (GenBank: NP_015566.1) and the rat GluN3A (GenBank: NP_612555.1) genes were subcloned into the pcDNA5-FRT-To and pcDNA3.1 vectors, respectively. An EGFP tag was added to the C-terminus of GluN1 or GluN3A using a T2A linker for identification of transfected cells during transient transfection. Point mutations were introduced by site-directed mutagenesis using PrimeSTAR (Takara). The human GluN2A (GenBank: NP_000824.1) gene was subcloned into the pcDNA3.1 vector. The chimeras GluN3A^670-673 MWPL/LEPF and GluN2A^550-553 LEPF/MWPL were generated using In-Fusion HD Cloning kits (Takara). All constructs were confirmed by DNA sequencing (Beijing Genomics Institute).
# The Flp-in T-Rex 293 cell lines (Invitrogen), stably expressing GluN1/GluN3A were grown in DMEM basal medium (Gibco) supplemented with 10% fetal bovine serum (FBS, Invitrogen), 15 μg/ml blasticidin S (Invitrogen), 50 μg/ml hygromycin B (Invitrogen) and 500 μg/ml G418 (Gibco). Expression in cell lines was induced with 1 μg/ml doxycycline (Invitrogen) 24–28 h prior to the experiments. Chinese hamster ovary (CHO) cells were grown in DMEM-F12 basal medium (Gibco) supplemented with 10% FBS. In the study on the action sites of WZB117, all whole-cell patch-clamp recordings were performed on CHO cells. The transfections were carried out using Lipofectamine 3000 transfection reagent (Thermo Fisher) according to the manufacturer’s instructions. All cells mentioned above were cultured in a 5% CO2 incubator at 37°C and passaged every other day at a ratio of 1:3.
# Whole-cell patch-clamp recordings were performed at room temperature (22–25°C) using an EPC-10 amplifier and Patch Master Software (HEKA). Pipettes were pulled from borosilicate glass capillaries (World Precision Instruments), and the resistances were 3–5 MΩ when filled with the intracellular solution. The extracellular solution contained (in mM): 140 NaCl, 2.8 KCl, 1 CaCl2, 10 HEPES and 20 sucrose (290–300 mOsm), pH adjusted to 7.3 using NaOH. The pipette solution contained (in mM): 115 CsF, 10 CsCl, 10 HEPES and 10 BAPTA (280–290 mOsm), pH adjusted to 7.2 using CsOH ([Grand et al., 2018]). When recording in hippocampal neurons, the extracellular solution contained (in mM): 140 NaCl, 5 KCl, 1 CaCl2, 1.25 MgCl2, 10 glucose, and 10 HEPES, and the pH was adjusted to 7.4 using NaOH, and the pipette solution contained (in mM): 140 KCl, 1 MgCl2, 10 EGTA, and 10 HEPES, and the pH was adjusted to 7.2 using KOH ([Xie et al., 2020]). Drug-containing solutions were applied through an RSC-200 Rapid Solution Changer with a 9-tube head (BioLogic Co., France), in which the cell is positioned close to the output of a capillary. The solution, containing either one drug or a combination of different drugs, to be assayed flows out of the capillary at a moderate flow rate by gravity. The lifted cell, exposed to this stream, rapidly equilibrates in the perfusion solution. Whole-cell patch-clamp recordings in heterologous cells and hippocampal neurons were performed at a holding potential of −60 mV. Currents were sampled at 10 kHz and low pass filtered at 2.9 kHz. To record the native GluN1/GluN3 receptor-mediated currents, the extracellular solution was supplemented with 10 μM bicuculline (Sigma-Aldrich), 2 μM NBQX (Topscience), 100 μM D-APV (MCE), and 50 μM strychnine (UHN Shanghai) to block γ-aminobutyric acid type A (GABAA), α-amino-3-hydroxy-5-methylisoxazole-4-propionate (AMPA), GluN1/GluN2 NMDA and glycine receptors, respectively. To record the native GluN2-NMDARs-mediated currents, 10 μM bicuculline and 2 μM NBQX were added into the extracellular solution to block GABAA receptors and AMPA receptors, respectively ([Grand et al., 2018]; [Otsu et al., 2019]; [Zhu et al., 2020]).
# Patch-clamp data were processed using Clampfit 10.4 (Molecular Device, Sunnyvale, CA, United States) and analyzed with GraphPad Prism 5.0 (GraphPad Software, San Diego, CA, United States). […]
row,Structure (SMILES),I drug/I control
1,COc1ccc(S(=O)(=O)N(CCO)c2ccccc2CN(C)C/C=C/c2ccc(Cl)cc2)cc1.O=P(O)(O)O [KN93 Phosphate],0.90 ± 0.02
2,CCCCCCCCCCCCCCCCn1cc[n+](Cc2ccccc2)c1C.[I-] [NH125],0.84 ± 0.03

# Same assay, conditions: Flp-In-T-REx-293; read-out: I drug/I control
row,Structure (SMILES),remaining activity at 3 µM [%]
1,CC(C)c1cc(C(C)C)c(CC(=O)NS(=O)(=O)Oc2c(C(C)C)cccc2C(C)C)c(C(C)C)c1 [Avasimibe],86 ± 3
2,CNc1nc(-c2ccc3c(N)n[nH]c3c2)cc(N2C[C@@H](C(=O)NC3CCCCC3)CC[C@H]2C)n1 [GSK2334470],84 ± 4
3,COc1cc(OC)c(C=C2C(O)=Nc3ccccc32)c(OC)c1 [IC261],88 ± 1
4,NC(=O)N1CCC(CC(=O)N2CCC([C@H]3c4ncc(Br)cc4CCc4cc(Cl)cc(Br)c43)CC2)CC1 [Lonafarnib],98 ± 2
5,O=C(O)c1cc(O)c2c(c1)C(=O)c1cccc(O)c1C2=O [Rhein],80 ± 4
6,"Cc1ccc(CN(Cc2ccc(-c3ccccc3S(=O)(=O)NC#N)cc2)C(=O)c2ccccc2Cl)cc1 [S0859, 2-chloro-N-[2'-(N-cyanosulfamoyl)biphenyl-4-ylmethyl]-N-(4-methylbenzyl) benzamide]",48 ± 2
7,Cc1[nH]c(/C=C2\C(=O)Nc3ccccc32)c(C)c1CCC(=O)O [SU6668],89 ± 4
8,CC(C)(O)CC(=O)NCCn1ccc2ncnc(Nc3ccc(Oc4cccc(C(F)(F)F)c4)c(Cl)c3)c21 [TAK285],92 ± 6
9,Nc1n[n+]([O-])c2ccccc2[n+]1[O-] [Tirapazamine],103 ± 5
10,"Oc1ccc(-c2nc3cc(O)cc(Br)c3o2)cc1 [WAY200070, 7-bromo-2-(4-hydroxyphenyl) benzoxazol-5-ol]",53 ± 2

# Target: T1, GluN1/GluN3A receptors
# Test: High-throughput Fluo-4 calcium assay (FDSS/μCell) in HEK-293 cells stably expressing GluN1/GluN3A
# Type: cell-based, human GluN1-1a, rat GluN3A
# Design: expressed in transfected cells
# Settings: primary and secondary screening
# Experimental: The HEK-293 cells stably expressing GluN1/GluN3A receptors were seeded at a density of 10,000 cells/well in the 384-well plates, and expression was induced with 1 μg/ml doxycycline for 24–28 h. Then the culture medium was removed, Fluo-4 (Invitrogen) was loaded and the cells were incubated in the 37°C incubator away from light for 1 h ([Gee et al., 2000]). The plates were gently washed twice with Ca^2+-free buffer and then incubated with one of the 2560 compounds (from the Chinese National Compound Library) or DMSO (1% and 0.33%) for 20 min. A fixed concentration of 30 μM and dual concentrations of 10 μM and 30 μM were applied in the primary and secondary screening, respectively. Two replicates were set up for each condition. […] A FDSS/μCell platform (Hamamatsu) was used to measure the fluorescence signals. The excitation (Ex) and emission (Em) wavelengths were set to 480 and 540 nm, respectively. The inhibitory effects of tested compounds were compared by the ratios of fluorescence (F) with (F drug) and without (F control) the compounds. The F control value in these assays represented the value of basal Fluo-4 fluorescence plus glycine-stimulated fluorescence, and the F drug indicated the total Fluo-4 fluorescence after treatment of the drugs. Both the F drug and F control values were taken at the peak. The Ca^2+-free buffer used to dilute Fluo-4 and wash cell-plates contained (in mM): 140 NaCl, 5 KCl, 1 MgCl2, 10 glucose, 10 HEPES, and 0.5 EGTA. The pH was adjusted to 7.2 using NaOH. To dilute the compounds, 2 mM of free Ca^2+ was added in addition to the other components of the buffer.
row,Structure (SMILES),identification in HTS
1,"O=C(O)c1cc(=O)c2c(Cl)cc(Cl)cc2[nH]1 [5,7-DCKA]",identified in both the primary screening and secondary screening
2,N[C@H](CO)C(=O)O [D-serine],identified in both the primary screening and secondary screening
3,O=c1[nH]c2cc(Cl)ccc2c(O)c1-c1cccc(Oc2ccccc2)c1 [L-701324],identified in both the primary screening and secondary screening
4,CCOC(=O)Nc1ccc(NCc2ccc(F)cc2)nc1N [flupirtine maleate],identified in both the primary screening and secondary screening
5,Nc1nc2ccc(OC(F)(F)F)cc2s1 [riluzole],identified in both the primary screening and secondary screening
